Experimental data reported in PubChem BioAssay (NCI).
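In this assay, cells in 96-well plates receive the compound at five concentrations for 48 hours. Endpoints are linearly interpolated between the surrounding concentrations. At the TGI there is no net growth.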

Columns and labels:
Assay in all cases: growth of human tumour cells (NCI), 48 h
SR leukemia = tested on: SR leukemia
786-0 renal = tested on: 786-0 renal
XF 498 CNS = tested on: XF 498 CNS
LOX IMVI melanoma = tested on: LOX IMVI melanoma
HT29 colon = tested on: HT29 colon
COLO 205 colon = tested on: COLO 205 colon
HCT-116 colon = tested on: HCT-116 colon
IGROV1 ovarian = tested on: IGROV1 ovarian
OVCAR-3 ovarian = tested on: OVCAR-3 ovarian
LXFL 529 NSCLC = tested on: LXFL 529 NSCLC
SW-620 colon = tested on: SW-620 colon
SN12C renal = tested on: SN12C renal
HOP-62 NSCLC = tested on: HOP-62 NSCLC
RPMI-8226 leukemia = tested on: RPMI-8226 leukemia
DMS 114 small cell lung = tested on: DMS 114 small cell lung
NCI-H226 lung = tested on: NCI-H226 lung
HCC-2998 colon = tested on: HCC-2998 colon
SF-295 CNS = tested on: SF-295 CNS
HL-60(TB) leukemia = tested on: HL-60(TB) leukemia
SNB-75 CNS = tested on: SNB-75 CNS
NCI-H460 lung = tested on: NCI-H460 lung
K-562 leukemia = tested on: K-562 leukemia
NCI-H23 lung = tested on: NCI-H23 lung
SK-OV-3 ovarian = tested on: SK-OV-3 ovarian
KM20L2 colon = tested on: KM20L2 colon
SK-MEL-28 melanoma = tested on: SK-MEL-28 melanoma
MOLT-4 leukemia = tested on: MOLT-4 leukemia
EKVX NSCLC = tested on: EKVX NSCLC
U251 CNS = tested on: U251 CNS
RXF 393 renal = tested on: RXF 393 renal
OVCAR-8 ovarian = tested on: OVCAR-8 ovarian
A549 NSCLC = tested on: A549 NSCLC
NCI-H522 lung = tested on: NCI-H522 lung
SNB-19 CNS = tested on: SNB-19 CNS
DLD-1 colon = tested on: DLD-1 colon
SNB-78 CNS = tested on: SNB-78 CNS
MALME-3M melanoma = tested on: MALME-3M melanoma
M19-MEL melanoma = tested on: M19-MEL melanoma
M14 melanoma = tested on: M14 melanoma
HCT-15 colon = tested on: HCT-15 colon
OVCAR-4 ovarian = tested on: OVCAR-4 ovarian
UACC-257 melanoma = tested on: UACC-257 melanoma
SK-MEL-2 melanoma = tested on: SK-MEL-2 melanoma
HOP-92 NSCLC = tested on: HOP-92 NSCLC
UACC-62 melanoma = tested on: UACC-62 melanoma
UO-31 renal = tested on: UO-31 renal
SK-MEL-5 melanoma = tested on: SK-MEL-5 melanoma
DMS 273 small cell lung = tested on: DMS 273 small cell lung
ACHN renal = tested on: ACHN renal
CCRF-CEM leukemia = tested on: CCRF-CEM leukemia
SF-268 CNS = tested on: SF-268 CNS
TK-10 renal = tested on: TK-10 renal
KM12 colon = tested on: KM12 colon
OVCAR-5 ovarian = tested on: OVCAR-5 ovarian
CAKI-1 renal = tested on: CAKI-1 renal
A498 renal = tested on: A498 renal
SF-539 CNS = tested on: SF-539 CNS

## O=C(CCN1CCCC1)CC(c1ccccc1)c1c(O)c2ccccc2oc1=O (stereo not given)
SR leukemia
  TGI: > 100 µM
786-0 renal
  TGI: > 100 µM
XF 498 CNS
  TGI: > 100 µM
LOX IMVI melanoma
  TGI: > 100 µM
HT29 colon
  TGI: > 100 µM
COLO 205 colon
  TGI: > 100 µM
HCT-116 colon
  TGI: > 100 µM
IGROV1 ovarian
  TGI: > 100 µM
OVCAR-3 ovarian
  TGI: > 100 µM
LXFL 529 NSCLC
  TGI: > 100 µM
SW-620 colon
  TGI: > 100 µM
SN12C renal
  TGI: > 100 µM
HOP-62 NSCLC
  TGI: > 100 µM
RPMI-8226 leukemia
  TGI: > 100 µM
DMS 114 small cell lung
  TGI: > 100 µM
NCI-H226 lung
  TGI: > 100 µM
HCC-2998 colon
  TGI: > 100 µM
SF-295 CNS
  TGI: > 100 µM
HL-60(TB) leukemia
  TGI: > 100 µM
SNB-75 CNS
  TGI: > 100 µM
NCI-H460 lung
  TGI: > 100 µM
K-562 leukemia
  TGI: > 100 µM
NCI-H23 lung
  TGI: > 100 µM
SK-OV-3 ovarian
  TGI: > 100 µM
KM20L2 colon
  TGI: > 100 µM
SK-MEL-28 melanoma
  TGI: > 100 µM
MOLT-4 leukemia
  TGI: > 100 µM
EKVX NSCLC
  TGI: > 100 µM
U251 CNS
  TGI: > 100 µM
RXF 393 renal
  TGI: > 100 µM
OVCAR-8 ovarian
  TGI: > 100 µM
A549 NSCLC
  TGI: > 100 µM
NCI-H522 lung
  TGI: > 100 µM
SNB-19 CNS
  TGI: > 100 µM
DLD-1 colon
  TGI: > 100 µM
SNB-78 CNS
  TGI: > 100 µM
MALME-3M melanoma
  TGI: > 100 µM
M19-MEL melanoma
  TGI: > 100 µM
M14 melanoma
  TGI: > 100 µM
HCT-15 colon
  TGI: > 100 µM
OVCAR-4 ovarian
  TGI: > 100 µM
UACC-257 melanoma
  TGI: > 100 µM
SK-MEL-2 melanoma
  TGI: > 100 µM
HOP-92 NSCLC
  TGI: 94.8 µM
UACC-62 melanoma
  TGI: > 100 µM
UO-31 renal
  TGI: > 100 µM
SK-MEL-5 melanoma
  TGI: > 100 µM
DMS 273 small cell lung
  TGI: > 100 µM
ACHN renal
  TGI: > 100 µM
CCRF-CEM leukemia
  TGI: > 100 µM
SF-268 CNS
  TGI: > 100 µM
TK-10 renal
  TGI: > 100 µM
KM12 colon
  TGI: > 100 µM

## CC(=O)c1c(P(=O)(OC(C)C)OC(C)C)nn(-c2ccc([N+](=O)[O-])cc2)c1C
SR leukemia
  TGI: > 100 µM
XF 498 CNS
  TGI: > 100 µM
HT29 colon
  TGI: > 100 µM
COLO 205 colon
  TGI: > 100 µM
HCT-116 colon
  TGI: > 100 µM
IGROV1 ovarian
  TGI: > 100 µM
OVCAR-3 ovarian
  TGI: > 100 µM
LXFL 529 NSCLC
  TGI: > 100 µM
OVCAR-5 ovarian
  TGI: > 100 µM
SW-620 colon
  TGI: > 100 µM
SN12C renal
  TGI: > 100 µM
CAKI-1 renal
  TGI: > 100 µM
HOP-62 NSCLC
  TGI: > 100 µM
RPMI-8226 leukemia
  TGI: > 100 µM
DMS 114 small cell lung
  TGI: > 100 µM
HCC-2998 colon
  TGI: > 100 µM
SF-295 CNS
  TGI: > 100 µM
HL-60(TB) leukemia
  TGI: > 100 µM
NCI-H460 lung
  TGI: > 100 µM
K-562 leukemia
  TGI: > 100 µM
NCI-H23 lung
  TGI: > 100 µM
SK-OV-3 ovarian
  TGI: > 100 µM
KM20L2 colon
  TGI: > 100 µM
SK-MEL-28 melanoma
  TGI: > 100 µM
MOLT-4 leukemia
  TGI: > 100 µM
EKVX NSCLC
  TGI: > 100 µM
U251 CNS
  TGI: > 100 µM
OVCAR-8 ovarian
  TGI: > 100 µM
A549 NSCLC
  TGI: > 100 µM
A498 renal
  TGI: > 100 µM
NCI-H522 lung
  TGI: > 100 µM
SNB-19 CNS
  TGI: > 100 µM
DLD-1 colon
  TGI: > 100 µM
SNB-78 CNS
  TGI: > 100 µM
MALME-3M melanoma
  TGI: > 100 µM
M19-MEL melanoma
  TGI: > 100 µM
M14 melanoma
  TGI: > 100 µM
HCT-15 colon
  TGI: > 100 µM
OVCAR-4 ovarian
  TGI: > 100 µM
UACC-257 melanoma
  TGI: > 100 µM
SK-MEL-2 melanoma
  TGI: > 100 µM
HOP-92 NSCLC
  TGI: > 100 µM
UACC-62 melanoma
  TGI: > 100 µM
UO-31 renal
  TGI: > 100 µM
SK-MEL-5 melanoma
  TGI: > 100 µM
DMS 273 small cell lung
  TGI: > 100 µM
ACHN renal
  TGI: > 100 µM
CCRF-CEM leukemia
  TGI: > 100 µM
SF-539 CNS
  TGI: > 100 µM
SF-268 CNS
  TGI: > 100 µM
TK-10 renal
  TGI: > 100 µM
KM12 colon
  TGI: > 100 µM
